These results are taken from PMC4639830, “Inhibition of DYRK1A and GSK3B induces human β-cell proliferation” (Nature Communications, 2015).

Usually inhibition stands for how much of the control response was suppressed.

One data set addresses T1, Dyrk1a (Homo sapiens, UniProt Q13627).
T1 construct: purchased Ambit KINOMEscan
The data set can be described thus: Kinase profiling. In kind it is biochemical. The settings on record: Conc 1000 nM; read-out: Percent inhibition, DYRK1a.

Another data set deals with intact human islets. The data set can be described thus: Intact human islet assay (Ki67, cell numbers). It counts as cell-based. The note with it: 8 days. The method, then:
Rat or human β-cell proliferation assays were performed using dissociated primary rat or human islets. Islets were treated with the indicated compounds in the presence of EdU for 4 days before fixing and staining. EdU incorporation was measured by click reaction with AlexaFluor-647-azide (Invitrogen). For intact islet assays, primary human islets were treated for 7 or 8 days (as indicated in the legend). Rat dissociated islets were cultured in RPMI medium containing 10% FBS and human dissociated islets were cultured in PIM-S media (Prodo laboratories) with 10% human […].

For data set [1], the system named is human islets in STZ-treated NSG mice. Put plainly: Human islets transplanted under kidney capsule of STZ-treated NSG mice, oral dosing. The note with it: 50 mg kg^−1, twice daily, 9 days. In kind it is in vivo, mouse. From the text: All animal care and experimental procedures were approved by the Institutional Animal Care and Use Committee (IACUC) of Genomics Institute of the Novartis Research Foundation and strictly followed the NIH guidelines for humane treatment of animals. The double transgenic RIP-DTA male mice (Tg(Ins2-rtTA)2Efr Tg(teto-DTA)1Gfi/J; Jackson Laboratory, Stock # 008755) were bred in-house and were maintained in a 12-h light/12-dark cycle environment with controlled temperature, humidity and ventilation. Animals were housed 3–5 mice per cage and had free access to water and standard laboratory chow. […] Blood glucose levels were measured from tail-vein blood with a glucometer (AlphaTrak2 Monitoring System; Abbott). […] Body weight and blood glucose were monitored every third day. […] Pancreatic insulin content was determined by MSD (meso-scale discovery). […] Baseline body weight and tail-vein blood glucose measurements were recorded before diabetic induction. To obtain a diabetic state, animals were given an intraperitoneal dose of STZ (135 mg kg^−1) and blood glucose was monitored before transplant. […]
Human islets (obtained commercially from Prodo Laboratories Inc.) were recovered for 48 h before transplantation. […] While mice were prepared, islets were counted according to IEQs and prepared into islet suspension of 800 IEQ/mouse in cold PBS. […]

For another data set, the system named is diabetic RIP-DTA mice. The data set can be described thus: RIP-DTA mouse model of T1D. It counts as in vivo. The settings on record: 50 mg kg^−1 twice daily. From the text: All animal care and experimental procedures were approved by the Institutional Animal Care and Use Committee (IACUC) of Genomics Institute of the Novartis Research Foundation and strictly followed the NIH guidelines for humane treatment of animals. The double transgenic RIP-DTA male mice (Tg(Ins2-rtTA)2Efr Tg(teto-DTA)1Gfi/J; Jackson Laboratory, Stock # 008755) were bred in-house and were maintained in a 12-h light/12-dark cycle environment with controlled temperature, humidity and ventilation. Animals were housed 3–5 mice per cage and had free access to water and standard laboratory chow. To induce pancreatic β-cell ablation and hyperglycaemia, doxycycline (200 μg ml^−1, Sigma-Aldrich) was provided in the drinking water for 5 days. Blood glucose levels were measured from tail-vein blood with a glucometer (AlphaTrak2 Monitoring System; Abbott). Experimental groups of 14 male mice each were randomized based on similar body weights (28.8±2.4 g), age (82±2 days), and blood glucose levels (428±96 mg dl^−1). Group sizes of eight animals each are sufficient to reliably detect changes in glycaemic control and β-cell mass based on historical data with reference compounds; an additional six mice were added to each group to assess total pancreatic insulin levels. […] A sub-set of animals were not given doxycycline treatment and were used as a non-diabetic vehicle–control group. All compounds were administered daily via oral gavage (4 ml kg^−1). Body weight and blood glucose were monitored every third day. An oral glucose tolerance test was performed after an overnight fast on day 12. For the insulin tolerance test, mice were fasted for 4 h before the administration of insulin (Novolin, Novo Nordisk, 0.7 U kg^−1 body weight, i.p.). Pancreatic insulin content was determined by MSD (meso-scale discovery). […] To determine β-cell proliferation and β-cell mass by morphological analyses, pancreata from the rest of animals (n=8) were rapidly dissected, fixed in formalin, sectioned and immunostained for insulin, Ki67 and BrdU on day 16. Male NSG mice, aged 8 weeks, were obtained from the Jackson Laboratory (Strain NOD.Cg-Prkdc^scid Il2rg^tm1Wjl/SzJ; Stock number 005557) and housed according to IACUC guidelines. Baseline body weight and tail-vein blood glucose measurements were recorded before diabetic induction. To obtain a diabetic state, animals were given an intraperitoneal dose of STZ (135 mg kg^−1) and blood glucose was monitored before transplant. Mice were grouped according to body weight and blood glucose level on the day of transplants (72 h after STZ treatment).
Pancreas specimens were harvested, weighed, fixed in 10% neutral buffered formalin and processed using standard paraffin processing techniques. Five micrometre serial-step sections were mounted onto Superfrost Plus slides and air-dried overnight. Samples were coded before histologic analyses resulting in blinded processing and staining. Routine hematoxylin and eosin (H&E) stains were performed on all specimens. Immunostaining was performed using the Ventana Discovery XT system. All epitope retrieval was done on the instrument using CC1 reagent. Chromogenic insulin was detected using guinea pig anti-insulin (Dako Corp A0564) at 1:3,200 and the Blue Map kit, after serum blocking and endogenous biotin blocking was performed, slides were then counterstained with Nuclear Fast Red. Fluorescent insulin and Ki67 double stains used a cocktail of the Dako anti-insulin at 1:1,600 and rabbit monoclonal Ki67 (Thermo RM9106) at 1:100, and were detected using a cocktail of Alexa Fluor 488 and 594-labelled secondary antibodies. Auto-fluorescence was quenched in red blood cells and reduced in connective tissue by treatment with 10 mM copper sulfate. Slides were counterstained with DAPI. 21 slides were collected per block. All slides were imaged on the Hamamatsu Nanozoomer and evaluated for β-cell mass and proliferation. […]

Another data set deals with primary human islets. The data set can be described thus: TUNEL in β-cells. It counts as cell-based. The note with it: 4 days in the presence of EdU. The protocol: Supplementary Figure 2. […] (a-c) Primary human […]
for 4 days in the presence of EdU. […]
effects on TUNEL in EdU positive cells while CDK6 and Cyclin D1 increased TUNEL staining in EdU positive cells (consistent with previous reports) (n=3; mean ± SD). (d) Human islets were […]
for 16 hrs in the presence of EdU. Following treatment, cells were analyzed for TUNEL, and stained for insulin and DAPI.
TUNEL without EdU incorporation. […]
(1 picture or pasted object on this page, not shown here)

In another data set the target is T2, Fyn (Homo sapiens, UniProt P06241).
T2 construct: purchased Ambit KINOMEscan
T2 sequence (P06241 whole entry): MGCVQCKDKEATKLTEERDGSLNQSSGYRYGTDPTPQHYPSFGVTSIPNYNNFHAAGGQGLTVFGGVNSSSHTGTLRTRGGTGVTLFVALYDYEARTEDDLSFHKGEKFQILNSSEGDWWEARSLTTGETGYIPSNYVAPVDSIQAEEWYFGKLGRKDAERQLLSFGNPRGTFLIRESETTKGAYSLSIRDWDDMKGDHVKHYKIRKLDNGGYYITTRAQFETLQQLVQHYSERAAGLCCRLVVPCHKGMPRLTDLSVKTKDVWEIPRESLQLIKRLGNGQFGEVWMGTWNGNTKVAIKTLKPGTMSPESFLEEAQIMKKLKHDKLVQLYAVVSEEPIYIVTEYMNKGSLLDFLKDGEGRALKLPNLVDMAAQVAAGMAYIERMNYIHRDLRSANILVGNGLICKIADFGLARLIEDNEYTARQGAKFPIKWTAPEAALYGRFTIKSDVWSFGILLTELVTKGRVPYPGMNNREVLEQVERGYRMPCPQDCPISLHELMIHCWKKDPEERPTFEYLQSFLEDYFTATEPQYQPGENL
The data set can be described thus: Kinase profiling. The settings on record: read-out: Percent inhibition, Fyn. It counts as biochemical. From the text: ; Fig. 5a; Supplementary Table 1). We focused on Dyrk1a because other kinases inhibited by aminopyrazine compounds were not highly expressed in β-cells and because Dyrk1a was known to inhibit the NFAT pathway that was previously implicated in β-cell proliferation. We used molecular modelling to dock the aminopyrazine compounds into the published structure of Dyrk1a (protein databank accession code 2vx3.pdb; Fig. 5b).

As to `Nc1ncc(-c2ccccc2)nc1C(=O)Nc1cnccc1N1CCC(C(=O)O)CC1` [GNF7156], the inhibition at 1 µM at Dyrk1a was 98%.
As for `CC(C)Oc1ccc(F)c(-c2cnc(N)c(C(=O)Nc3cnccc3N3CCC[C@@H](C(=O)O)C3)n2)c1` [GNF4877], the “increase in the number of Ki67-positive insulin-positive cells” value in the data set with intact human islets turned out to be 20 fold. The “glucose control (fed glucose levels)” value in data set [1] is “trend towards improved glucose control”. Besides, the “oral glucose tolerance vs vehicle” value in the data set with diabetic RIP-DTA mice (14 days of dosing) is on record as “dramatically improved glucose tolerance”. Further, in the data set with diabetic RIP-DTA mice (oral), the “body weight, appearance or behaviour vs vehicle” value is on record as “did not show any difference in body weight”; the “insulin tolerance vs vehicle” value is given as “without a significant difference in insulin tolerance”; the “non-fasting blood glucose levels” value is reported as “progressive reduction of non-fasting blood glucose levels”. Further, the “β-cell mass, increase vs vehicle-treated diabetic mice” value in the data set with diabetic RIP-DTA mice (oral, 14 days) is about 1.5 fold. Further, the “insulin content, increase vs vehicle-treated diabetic mice” value in the data set on diabetic RIP-DTA mice (oral, whole pancreas lysate, 15 days) was “twofold”. Further, the “TUNEL-positive β-cells” value in the data set with primary human islets is “unchanged”. Further, on Fyn (Conc 200 nM), the inhibition at 0.2 µM amounted to 26%. On Fyn (Conc 1000 nM), the inhibition at 1 µM amounted to 77%.
